# Data reported in patent US11583495B2, “Nasal composition comprising a mucoadhesive polymer” (Northriver Pharm, LLC, priority 2017, dated 2023).
# Assay: Drug release through lamb buccal mucosa, flow-through Franz diffusion cell
# Details: from CARBOPOL ETD 2020 NF (1%) solution containing triamcinolone and phenol
# Method: Drug release through lamb buccal mucosa was evaluated via a flow-through Franz diffusion cell. Lamb buccal mucosa was clamped into the cell and the receptor chamber was filled with 5 mL of phosphate buffered solution (PBS). CARBOPOL® ETD 2020 NF (1%) solution containing triamcinolone and phenol was applied to the donor chamber. 0.5 mL of PBS was withdrawn from the receptor chamber every 30 minutes and replaced with fresh PBS over the course of 7 hours. Each sample was placed in a cuvette for testing via UV-Vis spectrophotometry. The sample was compared to a set of calibration standards of known concentrations for triamcinolone and phenol, independently. […] The peaks at 225 nm and 270 nm correspond to phenol, and the peak at 240 corresponds with triamcinolone.
structure (smiles),measurement,setting,value
"Oc1ccccc1 [Phenol, phenol]",Phenol diffusion through the mucosa,"UV-Vis, based on calibration curve, over 7 hours",less than 0.025%
same,amounts released over time and diffused through the lamb buccal mucosa,sampled every 30 minutes over 7 hours,Increasing amounts
